{"source": "EPA's ToxRefDB 2", "key": {"[1]": {"system": "mink", "details": "Multigenerational reproductive toxicity study, ranch wild brown, Oral, Feed, dose end: 1 generation"}, "[2]": {"system": "mouse", "details": "Carcinogenicity; b6c3f1; Oral; Feed; dose end: 80 week; group: systemic; systemic / pathology microscopic / liver / hepatocellular carcinoma"}, "[3]": {"system": "rat", "details": "Developmental neurotoxicity study, sprague dawley, Oral, [Not Specified], dose end: 155 PND, group: cannot be grouped"}, "[4]": {"system": "rat", "details": "Carcinogenicity, Osborne-Mendel, Oral, Feed, dose end: 80 week, group: systemic"}, "[5]": {"system": "rat", "details": "Multigenerational reproductive toxicity study, wistar, Oral, Feed, dose end: 2 generation"}, "[6]": {"system": "rat", "details": "Multigenerational reproductive toxicity study, wistar, Oral, Feed, dose end: 2 generation", "remark": "listed apart in the source"}, "[7]": {"system": "rat", "details": "Developmental neurotoxicity study; sprague dawley; Oral; Gavage/Intubation; dose end: 125 PND; group: cannot be grouped; systemic / in life observation / body weight / offspring (pup) weight + systemic / in life observation / body weight / offspring (pup) …"}, "[8]": {"system": "rat", "details": "Developmental neurotoxicity study; long evans; Inhalation; Whole-Body; dose end: 100 PND; group: cannot be grouped; developmental / developmental malformation / bone / incomplete ossification + developmental / developmental malformation / ovary / …"}, "[9]": {"details": "group: offspring, developmental / offspring survival late / [other] / [other] + systemic / in life observation / body weight / offspring (pup) weight"}, "[10]": {"details": "group: offspring, systemic / in life observation / body weight / offspring (pup) weight"}, "[11]": {"details": "group: parental, systemic / in life observation / body weight / body weight + systemic / in life observation / clinical signs / [other] + systemic / in life …"}, "[12]": {"details": "group: reproductive, reproductive / reproductive performance / resorptions / resorptions + reproductive / offspring survival early / dead fetuses / dead fetuses"}, "[13]": {"details": "systemic / clinical chemistry / [other] / [other] + systemic / clinical chemistry / chloride / chloride + systemic / in life observation / …"}, "[14]": {"details": "systemic / clinical chemistry / chloride / chloride + systemic / in life observation / clinical signs / urination"}, "[15]": {"details": "systemic / in life observation / clinical signs / palpable mass + systemic / in life observation / clinical signs / vaginal discharge"}, "[16]": {"details": "systemic / in life observation / clinical signs / palpable mass + systemic / in life observation / clinical signs / vaginal discharge + …"}, "[17]": {"details": "group: offspring, developmental / developmental landmark / anogenital distance (agd) / anogenital distance (agd) + developmental / developmental landmark / …"}, "[18]": {"details": "group: parental, systemic / in life observation / body weight / body weight gain + systemic / in life observation / body weight / body weight + systemic / …"}, "[19]": {"details": "group: reproductive, reproductive / offspring survival early / birth index / live birth index + reproductive / reproductive performance / estrous cycle / …"}, "[20]": {"details": "group: parental, systemic / organ weight / epididymis / absolute + systemic / organ weight / testes / absolute"}}}
{"smiles": "ClC1=C(Cl)C2(Cl)C3C(Cl)C=CC3C1(Cl)C2(Cl)Cl", "note": "(configuration not stated) [Heptachlor]", "values": [{"measurement": "LOAEL", "setting": "[1]; [9]", "result": "> 25", "unit": "mg/kg/day"}, {"measurement": "NOAEL", "setting": "[1]; [9]", "result": "≥ 25", "unit": "mg/kg/day"}, {"measurement": "LEL", "setting": "[1]; [10]", "result": 6.25, "unit": "mg/kg/day"}, {"measurement": "NEL", "setting": "[1]; [10]", "result": "< 6.25", "unit": "mg/kg/day"}, {"measurement": "LEL", "setting": "[1]; [11]", "result": 12.5, "unit": "mg/kg/day"}, {"measurement": "LOAEL", "setting": "[1]; [11]", "result": "> 25", "unit": "mg/kg/day"}, {"measurement": "NEL", "setting": "[1]; [11]", "result": 6.25, "unit": "mg/kg/day"}, {"measurement": "NOAEL", "setting": "[1]; [11]", "result": "≥ 25", "unit": "mg/kg/day"}, {"measurement": "NEL", "setting": "[1]; group: reproductive, reproductive / reproductive performance / resorptions / resorptions", "result": 6.25, "unit": "mg/kg/day"}, {"measurement": "LEL", "setting": "[1]; [12]", "result": 12.5, "unit": "mg/kg/day"}, {"measurement": "LOAEL", "setting": "[1]; [12]", "result": "> 25", "unit": "mg/kg/day"}, {"measurement": "NOAEL", "setting": "[1]; [12]", "result": "≥ 25", "unit": "mg/kg/day"}, {"measurement": "LEL", "setting": "[2]", "result": 2.07, "unit": "mg/kg/day"}, {"measurement": "LOAEL", "setting": "[2]", "result": "> 2.07", "unit": "mg/kg/day"}, {"measurement": "NEL", "setting": "[2]", "result": 0.915, "unit": "mg/kg/day"}, {"measurement": "NOAEL", "setting": "[2]", "result": "≥ 2.07", "unit": "mg/kg/day"}, {"measurement": "LOAEL", "setting": "[3]; [13]", "result": "> 3", "unit": "mg/kg/day"}, {"measurement": "NOAEL", "setting": "[3]; [13]", "result": "≥ 3", "unit": "mg/kg/day"}, {"measurement": "LEL", "setting": "[3]; [14]", "result": 0.03, "unit": "mg/kg/day"}, {"measurement": "NEL", "setting": "[3]; [14]", "result": "< 0.03", "unit": "mg/kg/day"}, {"measurement": "LEL", "setting": "[4]; [15]", "result": 1.28, "unit": "mg/kg/day"}, {"measurement": "NEL", "setting": "[4]; [15]", "result": "< 1.28", "unit": "mg/kg/day"}, {"measurement": "LOAEL", "setting": "[4]; [16]", "result": "> 2.56", "unit": "mg/kg/day"}, {"measurement": "NOAEL", "setting": "[4]; [16]", "result": "≥ 2.56", "unit": "mg/kg/day"}]}
{"smiles": "CCC[CH2][Sn]([Cl])([CH2]CCC)[CH2]CCC", "note": "[Tributyltin chloride]", "values": [{"measurement": "LEL", "setting": "[5]; group: offspring, developmental / developmental landmark / anogenital distance (agd) / anogenital distance (agd)", "result": 1.25, "unit": "mg/kg/day"}, {"measurement": "LOAEL", "setting": "[5]; [17]", "result": "> 6.25", "unit": "mg/kg/day"}, {"measurement": "NEL", "setting": "[5]; [17]", "result": 0.25, "unit": "mg/kg/day"}, {"measurement": "NOAEL", "setting": "[5]; [17]", "result": "≥ 6.25", "unit": "mg/kg/day"}, {"measurement": "NEL", "setting": "[5]; group: parental, systemic / in life observation / body weight / body weight gain", "result": 1.25, "unit": "mg/kg/day"}, {"measurement": "LEL", "setting": "[5]; [18]", "result": 6.25, "unit": "mg/kg/day"}, {"measurement": "LOAEL", "setting": "[5]; [18]", "result": "> 6.25", "unit": "mg/kg/day"}, {"measurement": "NOAEL", "setting": "[5]; [18]", "result": "≥ 6.25", "unit": "mg/kg/day"}, {"measurement": "LEL", "setting": "[5]; [19]", "result": 6.25, "unit": "mg/kg/day"}, {"measurement": "LOAEL", "setting": "[5]; [19]", "result": "> 6.25", "unit": "mg/kg/day"}, {"measurement": "NEL", "setting": "[5]; [19]", "result": 1.25, "unit": "mg/kg/day"}, {"measurement": "NOAEL", "setting": "[5]; [19]", "result": "≥ 6.25", "unit": "mg/kg/day"}, {"measurement": "LEL", "setting": "[6]; [10]", "result": 0.25, "unit": "mg/kg/day"}, {"measurement": "LOAEL", "setting": "[6]; [10]", "result": 0.25, "unit": "mg/kg/day"}, {"measurement": "NEL", "setting": "[6]; [10]", "result": "< 0.25", "unit": "mg/kg/day"}, {"measurement": "NOAEL", "setting": "[6]; [10]", "result": "< 0.25", "unit": "mg/kg/day"}, {"measurement": "LEL", "setting": "[6]; [20]", "result": 0.25, "unit": "mg/kg/day"}, {"measurement": "LOAEL", "setting": "[6]; [20]", "result": 0.25, "unit": "mg/kg/day"}, {"measurement": "NEL", "setting": "[6]; [20]", "result": "< 0.25", "unit": "mg/kg/day"}, {"measurement": "NOAEL", "setting": "[6]; [20]", "result": "< 0.25", "unit": "mg/kg/day"}, {"measurement": "LEL", "setting": "[7]", "result": 5, "unit": "mg/kg/day"}, {"measurement": "LOAEL", "setting": "[7]", "result": "> 5", "unit": "mg/kg/day"}, {"measurement": "NEL", "setting": "[7]", "result": 1, "unit": "mg/kg/day"}, {"measurement": "NOAEL", "setting": "[7]", "result": "≥ 5", "unit": "mg/kg/day"}]}
{"smiles": "ClC=C(Cl)Cl", "note": "[Trichloroethylene]", "values": [{"measurement": "LEL", "setting": "[8]", "result": 1800, "unit": "ppm"}, {"measurement": "LOAEL", "setting": "[8]", "result": "> 1800", "unit": "ppm"}, {"measurement": "NEL", "setting": "[8]", "result": "< 1800", "unit": "ppm"}, {"measurement": "NOAEL", "setting": "[8]", "result": "≥ 1800", "unit": "ppm"}]}
